Test results from patent US9840513B2 (AbbVie S.à.r.l., priority 2015, dated 2017).

Target: T1, F508delCFTR cell surface expression in CFBE41o-F508delCFTR-HRP cells (Homo sapiens, UniProt P13569, DEL508-508)
T1 construct: fused on or other part: Horseradish peroxidase (HRP) reporter inserted in the fourth exofacial (extracellular) loop of CFTR; expression is doxycycline-inducible
Test: Cell Surface Expression-Horse Radish Peroxidase (CSE-HRP) Assay
Assay type: cell-based
Conditions: for EC50: CFBE41o-F508delCFTR-HRP cells, 18-24 hours at 33° C., 8-point curve, highest concentration 20 μM; for Maximum % activity (%): maximum at any tested concentration, normalized to on-plate positive control (3 μM)
Source text: Cell Surface Expression-Horse Radish Peroxidase (CSE-HRP) Assay:
A cellular assay for measuring the F508delCFTR cell surface expression after correction with test compounds was developed in human lung derived epithelial cell line (CFBE41o-) (Veit G et al, (2012) Mol Biol Cell. 23(21): 4188-4202). This was achieved by expressing the F508delCFTR mutation along with a horseradish peroxidase (HRP) in the fourth exofacial loop and then measuring the HRP activity using luminescence readout from these cells, CFBE41o-F508delCFTR-HRP, that were incubated overnight with the test corrector compounds. Briefly, for this primary assay, the CFBE41o-F508delCFTR-HRP cells were plated in 384-well plates (Greiner Bio-one; Cat 781080) at 4,000 cells/well along with 0.5 μg/mL doxycycline to induce the F508delCFTR-HRP expression and further incubated at 37° C., 5% CO2 for 72 hours. The test compounds were then added at the required concentrations and further incubated for 18-24 hours at 33° C. The highest concentration tested was 20 μM with an 8-point concentration response curve using a 3-fold dilution. Three replicate plates were run to determine one EC50. All plates contained negative controls (dimethyl sulfoxide, DMSO) and positive controls (3 μM of 3-[(2R,4R)-4-({[1-(2,2-difluoro-1,3-benzodioxol-5-yl)cyclopropyl]carbonyl}amino)-7-methoxy-3,4-dihydro-2H-chromen-2-yl]benzoic acid) as well as on-plate concentration response of the positive control. Post incubation, the plates were washed 5× times with Dulbecco's phosphate buffered saline (DPBS), followed by the addition of the HRP substrate, luminol (50 μL), and measuring the HRP activity using luminescence readout on EnVision® Multilabel Plate Reader (Perkin Elmer; product number 2104-0010). The raw counts from the experiment are analyzed using Accelrys® Assay Explorer v3.3.
Z′ greater than 0.5 was used as passing quality control criteria for the plates.
The Z′ is defined as: 1−[3*SDPositive Control+3*SDNegative Control/Absolute(MeanPositive Control−MeanNegative Control)] wherein “SD” is standard deviation.
The % activity measured at each of the 8 test concentrations of the test compound was normalized to the on-plate positive control using the following formula: % activity=[(test compound response DMSO response)/(positive control response DMSO response)]*100
The maximum % activity achieved for the test compound at any tested concentration is presented in Table 1 along with the EC50 calculated using the following general sigmoidal curve with variable Hill slope equation (described as Model 42 in the Accelrys® Assay Explorer v3.3 software): y=(a−d)/(1+(x/c)^b)+d
General sigmoidal curve with concentration, response, top, bottom, EC50 and Hill slope.
This model describes a sigmoidal curve with an adjustable baseline, a. The equation can be used to fit curves where response is either increasing or decreasing with respect to the independent variable, “x”.
“x” is a concentration of drug under test.
“a” is the maximum response, and “d” is the minimum response
“c” is the inflection point (EC50) for the curve. That is, “y” is halfway between the lower and upper asymptotes when x=c.
“b” is the slope-factor or Hill coefficient. The sign of b is positive when the response increases with increasing dose and is negative when the response decreases with increasing dose (inhibition).

T1 sequence (P13569 with tags, fused parts or gaps DEL508-508 limits assumed): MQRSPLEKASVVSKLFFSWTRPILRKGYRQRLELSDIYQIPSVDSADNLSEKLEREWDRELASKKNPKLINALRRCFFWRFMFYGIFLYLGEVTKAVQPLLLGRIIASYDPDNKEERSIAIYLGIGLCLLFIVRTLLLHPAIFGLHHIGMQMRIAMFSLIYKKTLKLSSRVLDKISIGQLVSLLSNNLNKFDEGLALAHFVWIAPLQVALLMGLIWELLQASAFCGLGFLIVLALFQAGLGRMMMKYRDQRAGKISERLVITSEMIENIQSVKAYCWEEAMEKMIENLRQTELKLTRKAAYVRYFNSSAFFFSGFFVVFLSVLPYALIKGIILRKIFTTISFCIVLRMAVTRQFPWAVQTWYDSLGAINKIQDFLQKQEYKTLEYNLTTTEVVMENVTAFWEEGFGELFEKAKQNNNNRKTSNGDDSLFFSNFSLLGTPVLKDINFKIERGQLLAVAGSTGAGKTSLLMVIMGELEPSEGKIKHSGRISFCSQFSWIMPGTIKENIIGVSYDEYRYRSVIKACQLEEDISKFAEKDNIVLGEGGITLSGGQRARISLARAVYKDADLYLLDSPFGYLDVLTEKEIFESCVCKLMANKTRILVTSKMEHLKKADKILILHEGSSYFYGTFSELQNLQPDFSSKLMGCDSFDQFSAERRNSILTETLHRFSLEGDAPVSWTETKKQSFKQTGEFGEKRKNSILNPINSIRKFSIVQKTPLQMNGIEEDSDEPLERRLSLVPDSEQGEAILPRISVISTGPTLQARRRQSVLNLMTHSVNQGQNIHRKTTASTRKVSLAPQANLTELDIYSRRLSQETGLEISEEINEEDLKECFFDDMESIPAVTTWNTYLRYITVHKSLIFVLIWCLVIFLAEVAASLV
T1 sequence (P13569 919-1480 limits assumed, stated change not applied): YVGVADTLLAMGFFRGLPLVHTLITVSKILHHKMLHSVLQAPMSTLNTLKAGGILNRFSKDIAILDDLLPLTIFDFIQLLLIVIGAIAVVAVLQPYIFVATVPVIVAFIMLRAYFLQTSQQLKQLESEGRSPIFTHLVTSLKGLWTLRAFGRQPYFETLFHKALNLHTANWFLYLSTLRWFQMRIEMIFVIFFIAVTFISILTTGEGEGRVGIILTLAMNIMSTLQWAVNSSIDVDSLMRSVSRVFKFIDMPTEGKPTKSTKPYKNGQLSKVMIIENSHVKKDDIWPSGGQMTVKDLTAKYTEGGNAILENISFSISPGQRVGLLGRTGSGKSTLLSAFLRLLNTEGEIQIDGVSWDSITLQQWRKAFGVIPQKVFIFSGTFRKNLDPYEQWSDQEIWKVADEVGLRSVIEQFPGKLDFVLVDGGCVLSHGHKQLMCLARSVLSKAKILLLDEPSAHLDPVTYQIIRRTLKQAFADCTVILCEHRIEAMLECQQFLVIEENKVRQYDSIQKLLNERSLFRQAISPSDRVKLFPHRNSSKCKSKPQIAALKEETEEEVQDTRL

Molecule | EC50 [nM] | Maximum % activity (%)
1-(6-{[(7R)-2,2-difluoro-7-methyl-6,7-dihydro-2H-furo[2,3-f][1,3]benzodioxole-7-carbonyl]amino}pyridin-2-yl)-4,4-dimethylpyrrolidine-3-carboxylic acid [Example 115] | 1000 | 147
4-[(2R,4S,6R)-4-{[(7R)-2,2-difluoro-7-methyl-6,7-dihydro-2H-furo[2,3-f][1,3]benzodioxole-7-carbonyl]amino}-6-methyloxan-2-yl]benzoic acid and 4-[(2S,4R,6S)-4-{[(7R)-2,2-difluoro-7-methyl-6,7-dihydro-2H-furo[2,3-f][1,3]benzodioxole-7-carbonyl]amino}-6-methyloxan-2-yl]benzoic acid [Example 43] | 2510 | 93
4-[(2R,4S,6S)-4-{[(7R)-2,2-difluoro-7-methyl-6,7-dihydro-2H-furo[2,3-f][1,3]benzodioxole-7-carbonyl]amino}-6-phenyloxan-2-yl]benzoic acid and 4-[(2S,4R,6R)-4-{[(7R)-2,2-difluoro-7-methyl-6,7-dihydro-2H-furo[2,3-f][1,3]benzodioxole-7-carbonyl]amino}-6-phenyloxan-2-yl]benzoic acid [Example 34] | 480 | 109
Cc1ccc(NC(=O)[C@@]2(C)CCc3c2ccc2c3OCO2)cc1-c1cccc(C(=O)O)c1 (single isomer, unassigned) [Example 38] | 4560 | 22
C[C@]1(C(=O)N[C@H]2C[C@@H](c3ccc(C(=O)O)cc3)O[C@@H](c3ccccc3)C2)COc2cc3c(cc21)OC(F)(F)O3 (single isomer, unassigned) [Example 45] | 920 | 111
O=C(O)c1ccc([C@@H]2C[C@H](NC(=O)C3(c4ccc5c(c4)OC(F)(F)O5)CC3)c3ccccc3N2)cc1 (single isomer, unassigned) [Example 48] | 2770 | 27
CC(C)(CO)[C@H]1Cc2cc(NC(=O)[C@@]3(C)COc4cc5c(cc43)OC(F)(F)O5)c(F)cc2N1C[C@@H](O)CO (single isomer, unassigned) [Example 140] | 1300 | 49
CC(C)(CO)[C@@H]1Cc2cc(NC(=O)[C@@]3(C)COc4cc5c(cc43)OC(F)(F)O5)c(F)cc2N1C[C@@H](O)CO (single isomer, unassigned) [Example 141] | 960 | 39
Cc1ccc(NC(=O)[C@]2(C)COc3cc4c(cc32)OC(F)(F)O4)nc1-c1cccc(C(=O)O)c1 [Example 4, 3-(6-{[(7S)-2,2-difluoro-7-methyl-6,7-dihydro-2H-furo[2,3-f][1,3]benzodioxole-7-carbonyl]amino}-3-methylpyridin-2-yl)benzoic acid] | > 20000 | 12
COC(=O)[C@@H]1CCN(c2cccc(NC(=O)C3(C)COc4cc5c(cc43)OC(F)(F)O5)n2)C1 (stereo partly drawn) [Example 7, methyl (3R)-1-{6-[(2,2-difluoro-7-methyl-6,7-dihydro-2H-furo[2,3-f][1,3]benzodioxole-7-carbonyl)amino]pyridin-2-yl}pyrrolidine-3-carboxylate] | 3770 | 124
CC1(C(=O)Nc2cccc(N3CC[C@@H](C(=O)O)C3)n2)COc2cc3c(cc21)OC(F)(F)O3 (stereo partly drawn) [Example 8, (3R)-1-{6-[(2,2-difluoro-7-methyl-6,7-dihydro-2H-furo[2,3-f][1,3]benzodioxole-7-carbonyl)amino]pyridin-2-yl}pyrrolidine-3-carboxylic acid] | 1470 | 126
C[C@]1(C(=O)Nc2cccc(N3CC[C@@H](C(=O)O)C3)n2)COc2cc3c(cc21)OC(F)(F)O3 [Example 9, (3R)-1-(6-{[(7R)-2,2-difluoro-7-methyl-6,7-dihydro-2H-furo[2,3-f][1,3]benzodioxole-7-carbonyl]amino}pyridin-2-yl)pyrrolidine-3-carboxylic acid] | 1030 | 135

The remaining lines, values ahead:

EC50 [nM] | Maximum % activity (%) | Molecule
210 | 116 | COc1ccc2c(c1)O[C@@H](c1ccc(C(=O)O)cc1)C[C@H]2NC(=O)[C@]1(C)CCc2cc3c(cc21)OC(F)(F)O3 (single isomer, unassigned) [Example 49]
1670 | 75 | COc1ccc2c(c1)O[C@@H](c1ccc(C(=O)O)cc1)C[C@H]2NC(=O)[C@@]1(C)CCc2cc3c(cc21)OC(F)(F)O3 (single isomer, unassigned) [Example 50]
880 | 107 | COc1ccc2c(c1)O[C@@H](c1cccc(C(=O)O)c1)C[C@H]2NC(=O)[C@]1(C)CCc2cc3c(cc21)OC(F)(F)O3 (single isomer, unassigned) [Example 56]
1770 | 99 | COc1ccc2c(c1)O[C@@H](c1cccc(C(=O)O)c1)C[C@H]2NC(=O)[C@@]1(C)CCc2cc3c(cc21)OC(F)(F)O3 (single isomer, unassigned) [Example 57]
420 | 104 | C[C@@]1(C(=O)N[C@@H]2C[C@H](c3ccc(C(=O)O)cc3)Oc3ccccc32)CCc2cc3c(cc21)OC(F)(F)O3 (single isomer, unassigned) [Example 58]
70 | 123 | COc1ccc2c(c1)O[C@@H](c1cnc([C@@H](O)CO)cn1)C[C@H]2NC(=O)[C@@]1(C)COc2cc3c(cc21)OC(F)(F)O3 (single isomer, unassigned) [Example 191]
260 | 108 | COc1ccc2c(c1)O[C@H](c1ccc(OCc3ccccc3)nn1)C[C@H]2NC(=O)[C@@]1(C)COc2cc3c(cc21)OC(F)(F)O3 (single isomer, unassigned) [Example 272]
120 | 92 | COc1ccc2c(c1)O[C@@H](c1ccc(OCc3ccccc3)nn1)C[C@H]2NC(=O)[C@@]1(C)COc2cc3c(cc21)OC(F)(F)O3 (single isomer, unassigned) [Example 273]
2050 | 100 | Cc1ccc(NC(=O)C2(C)COc3cc4c(cc32)OC(F)(F)O4)nc1-c1cccc(C(=O)OC(C)(C)C)c1 (centres unmarked) [Example 1, tert-butyl 3-{6-[(2,2-difluoro-7-methyl-6,7-dihydro-2H-furo[2,3-f][1,3]benzodioxole-7-carbonyl)amino]-3-methylpyridin-2-yl}benzoate]
> 20000 | 3 | Cc1ccc(NC(=O)[C@]2(C)COc3cc4c(cc32)OC(F)(F)O4)nc1-c1cccc(C(=O)OC(C)(C)C)c1 [Example 3, tert-butyl 3-(6-{[(7S)-2,2-difluoro-7-methyl-6,7-dihydro-2H-furo[2,3-f][1,3]benzodioxole-7-carbonyl]amino}-3-methylpyridin-2-yl)benzoate]
3210 | 137 | Cc1ccc(NC(=O)[C@@]2(C)COc3cc4c(cc32)OC(F)(F)O4)nc1-c1cccc(C(=O)OC(C)(C)C)c1 [Example 5, tert-butyl 3-(6-{[(7R)-2,2-difluoro-7-methyl-6,7-dihydro-2H-furo[2,3-f][1,3]benzodioxole-7-carbonyl]amino}-3-methylpyridin-2-yl)benzoate]
410 | 121 | COC(=O)c1cccc([C@H]2C[C@@H](NC(=O)C3(C)COc4cc5c(cc43)OC(F)(F)O5)c3ccc(OC)cc3O2)c1 (stereo partly drawn) [Example 10, methyl 3-{(2R,4R)-4-[(2,2-difluoro-7-methyl-6,7-dihydro-2H-furo[2,3-f][1,3]benzodioxole-7-carbonyl)amino]-7-methoxy-3,4-dihydro-2H-1-benzopyran-2-yl}benzoate]
> 20000 | 14 | COC(=O)c1cccc([C@H]2C[C@@H](NC(=O)[C@]3(C)COc4cc5c(cc43)OC(F)(F)O5)c3ccc(OC)cc3O2)c1 [Example 12]
